Measurements: patent publication US12528767B2, “HDAC6 inhibitors and uses thereof” (Eikonizo Therapeutics, Inc., priority 2019, dated 2026)
Like-named read-outs stand apart in the source and are kept apart here.

What was measured:
Full length Human HDAC8 = biological target: T1, Full length Human HDAC8 (Homo sapiens, UniProt Q9BY41)
T1 sequence (Q9BY41 1-377): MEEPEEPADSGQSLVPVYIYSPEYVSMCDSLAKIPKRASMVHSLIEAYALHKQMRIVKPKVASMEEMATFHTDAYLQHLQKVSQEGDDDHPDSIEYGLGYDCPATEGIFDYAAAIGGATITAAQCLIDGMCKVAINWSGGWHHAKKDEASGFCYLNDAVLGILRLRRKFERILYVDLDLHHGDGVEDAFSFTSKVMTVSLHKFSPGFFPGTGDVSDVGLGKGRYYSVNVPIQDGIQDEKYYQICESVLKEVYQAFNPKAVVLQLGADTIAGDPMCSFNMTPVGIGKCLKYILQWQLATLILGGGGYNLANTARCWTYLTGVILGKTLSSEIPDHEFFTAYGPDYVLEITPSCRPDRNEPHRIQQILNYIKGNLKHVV

Full length Human HDAC10 = biological target: T2, Full length Human HDAC10 (Homo sapiens, UniProt Q969S8)
T2 sequence (Q969S8 1-669): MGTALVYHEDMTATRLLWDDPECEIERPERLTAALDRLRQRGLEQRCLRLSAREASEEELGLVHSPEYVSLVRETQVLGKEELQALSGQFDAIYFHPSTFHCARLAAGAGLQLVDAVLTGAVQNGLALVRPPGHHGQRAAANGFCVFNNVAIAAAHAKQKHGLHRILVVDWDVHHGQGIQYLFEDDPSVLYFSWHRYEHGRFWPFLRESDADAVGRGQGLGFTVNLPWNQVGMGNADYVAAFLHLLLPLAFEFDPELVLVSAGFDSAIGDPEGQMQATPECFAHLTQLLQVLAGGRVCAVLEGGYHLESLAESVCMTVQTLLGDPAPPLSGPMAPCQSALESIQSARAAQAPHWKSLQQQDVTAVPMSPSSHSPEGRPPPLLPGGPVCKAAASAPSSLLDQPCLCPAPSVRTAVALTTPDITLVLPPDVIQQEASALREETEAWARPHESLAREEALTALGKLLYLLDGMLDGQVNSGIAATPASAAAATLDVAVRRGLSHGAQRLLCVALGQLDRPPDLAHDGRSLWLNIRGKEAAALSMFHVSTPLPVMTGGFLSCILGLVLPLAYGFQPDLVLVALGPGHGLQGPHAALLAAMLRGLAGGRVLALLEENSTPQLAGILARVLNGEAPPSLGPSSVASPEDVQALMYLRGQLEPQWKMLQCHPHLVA

Full length Human HDAC6 = biological target: T3, Full length Human HDAC6 (Homo sapiens, UniProt Q9UBN7); conditions: for Selectivity (6 v 8) (fold): ratio of HDAC8 IC50/HDAC6 IC50
T3 sequence (Q9UBN7 1-1215): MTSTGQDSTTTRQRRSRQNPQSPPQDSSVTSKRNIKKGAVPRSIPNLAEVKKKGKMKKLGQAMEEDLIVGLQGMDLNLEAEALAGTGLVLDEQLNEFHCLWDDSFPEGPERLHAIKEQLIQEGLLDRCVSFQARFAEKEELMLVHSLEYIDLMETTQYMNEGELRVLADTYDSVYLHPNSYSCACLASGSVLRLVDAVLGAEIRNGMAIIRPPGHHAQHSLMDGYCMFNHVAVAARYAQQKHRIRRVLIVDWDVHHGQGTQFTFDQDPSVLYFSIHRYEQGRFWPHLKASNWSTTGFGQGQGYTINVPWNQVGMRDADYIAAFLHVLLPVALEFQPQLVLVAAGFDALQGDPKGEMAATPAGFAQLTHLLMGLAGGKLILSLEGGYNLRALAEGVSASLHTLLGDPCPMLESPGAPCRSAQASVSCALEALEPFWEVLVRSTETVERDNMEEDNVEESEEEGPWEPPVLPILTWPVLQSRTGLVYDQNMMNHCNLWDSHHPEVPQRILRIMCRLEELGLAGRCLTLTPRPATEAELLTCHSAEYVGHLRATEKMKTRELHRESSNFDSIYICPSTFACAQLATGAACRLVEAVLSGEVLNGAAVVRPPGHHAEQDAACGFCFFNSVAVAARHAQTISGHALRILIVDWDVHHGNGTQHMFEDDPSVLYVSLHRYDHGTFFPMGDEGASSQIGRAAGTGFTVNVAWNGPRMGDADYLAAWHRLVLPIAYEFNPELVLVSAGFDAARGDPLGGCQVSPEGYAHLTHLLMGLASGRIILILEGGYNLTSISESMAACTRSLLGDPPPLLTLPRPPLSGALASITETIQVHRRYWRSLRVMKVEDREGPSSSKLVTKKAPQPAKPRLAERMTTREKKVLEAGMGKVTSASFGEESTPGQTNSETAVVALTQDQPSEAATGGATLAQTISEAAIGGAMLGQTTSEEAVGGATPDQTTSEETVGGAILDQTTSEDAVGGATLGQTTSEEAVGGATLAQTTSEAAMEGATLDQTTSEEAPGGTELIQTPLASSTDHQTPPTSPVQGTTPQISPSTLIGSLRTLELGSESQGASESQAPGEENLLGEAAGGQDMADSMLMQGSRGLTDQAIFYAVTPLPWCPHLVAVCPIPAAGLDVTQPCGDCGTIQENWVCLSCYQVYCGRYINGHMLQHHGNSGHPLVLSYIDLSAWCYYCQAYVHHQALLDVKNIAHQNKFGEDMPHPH

Human HDAC7 aa 518-end = biological target: T4, Human HDAC7 aa 518-end (Homo sapiens, UniProt Q8WUI4)
T4 sequence (Q8WUI4 518-952 limits assumed): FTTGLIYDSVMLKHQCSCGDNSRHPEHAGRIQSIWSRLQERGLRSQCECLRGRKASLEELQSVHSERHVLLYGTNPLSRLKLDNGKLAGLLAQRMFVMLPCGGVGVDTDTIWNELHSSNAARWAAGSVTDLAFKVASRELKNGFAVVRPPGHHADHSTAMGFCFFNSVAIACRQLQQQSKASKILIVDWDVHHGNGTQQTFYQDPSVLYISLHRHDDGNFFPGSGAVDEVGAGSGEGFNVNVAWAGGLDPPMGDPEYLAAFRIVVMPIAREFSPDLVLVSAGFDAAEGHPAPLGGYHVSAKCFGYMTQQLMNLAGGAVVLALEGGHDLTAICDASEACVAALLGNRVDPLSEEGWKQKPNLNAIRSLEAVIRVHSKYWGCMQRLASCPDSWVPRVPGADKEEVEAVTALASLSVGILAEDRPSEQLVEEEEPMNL

[1] = read-out: In vitro enzymatic IC50, HDAC Paralog 8, Table 2
[2] = read-out: In vitro enzymatic IC50, HDAC Paralog 6, Table 2

| Structure (SMILES) | IC50 (Full length Human HDAC8) [nM] | IC50 (Full length Human HDAC8; [1]) [nM] | IC50 (Full length Human HDAC10) [nM] | IC50 (Full length Human HDAC6) [nM] | IC50 (Full length Human HDAC6; [2]) [nM] | IC50 (Human HDAC7 aa 518-end) [nM] | Selectivity (6 v 8) (fold) (Full length Human HDAC6; Table 1, number) | Selectivity (6 v 8) (fold) (Full length Human HDAC6; Table 1, range class) |
| --- | --- | --- | --- | --- | --- | --- | --- | --- |
| CC(C)(C)CN1CCc2cc(C(=O)NO)cc(F)c2C1 [compound 20] | 10000 to 100000 | 10000 to 100000 | 10000 to 100000 | 1 to 100 | 1 to 100 | > 100000 | – | – |
| O=C(NO)c1ccc2c(c1)C[C@H]1COCC(=O)N1C2 (single isomer, unassigned) [compound 134] | 1000 to 10000 | – | 10000 to 100000 | 1 to 100 | – | 10000 to 100000 | – | – |
| O=C(NO)c1cc(F)c2c(c1)CCN1CCCC[C@@H]21 (single isomer, unassigned) [compound 139] | 1000 to 10000 | – | 10000 to 100000 | 1 to 100 | – | 1000 to 10000 | – | – |
| O=C(NO)c1cc(F)c2c(c1)C[C@@H]1CC3(CCCCC3)CN1C2 (single isomer, unassigned) [compound 136] | 1000 to 10000 | – | > 100000 | 1 to 100 | – | 1000 to 10000 | – | – |
| O=C(NO)c1cc(F)c2c(c1)CC1CCCN1C2 (single isomer, unassigned) [compound 120] | 1000 to 10000 | 1000 to 10000 | > 100000 | 1 to 100 | 1 to 100 | 1000 to 10000 | – | – |
| O=C(NO)c1cc(F)c2c(c1)CCN(C1COC1)C2 [compound 24] | 1000 to 10000 | 1000 to 10000 | > 100000 | 1 to 100 | 1 to 100 | 1000 to 10000 | – | – |
| O=C(NO)c1ccc(CN2C3CCC2CC(=NO)C3)c(F)c1 [compound 54] | 100 to 1000 | 100 to 1000 | > 100000 | 1 to 100 | 1 to 100 | 1000 to 10000 | 38.9 | III (III: >10-100) |
| CC1(C)C[C@H]2Cc3c(F)cc(C(=O)NO)cc3CN2C1 (single isomer, unassigned) [compound 128] | 1000 to 10000 | – | > 100000 | 100 to 1000 | – | 1000 to 10000 | – | – |
| C[C@@H]1CC[C@H]2c3c(F)cc(C(=O)NO)cc3CCN12 (single isomer, unassigned) [compound 158] | 1000 to 10000 | – | > 100000 | 1 to 100 | – | 100 to 1000 | – | – |
| O=C(NO)c1cc(F)c2c(c1)CCN(C1CC3(CCC3)C1)C2 [compound 112] | > 100000 | > 100000 | > 100000 | 1 to 100 | 1 to 100 | 10000 to 100000 | >12414.6 | V (V: >1000) |
| O=C(NO)c1cc(F)c2c(c1)CCN(CC1CCCCC1)C2 [compound 19] | 1000 to 10000 | 1000 to 10000 | 10000 to 100000 | 1 to 100 | 1 to 100 | 10000 to 100000 | – | – |
| O=C(NO)c1ccc(CN2CCC3(CCCCC3)CC2)c(F)c1 [compound 74] | 1000 to 10000 | 1000 to 10000 | 10000 to 100000 | 100 to 1000 | 100 to 1000 | 1000 to 10000 | 24.9 | III (III: >10-100) |
| O=C(NO)c1ccc(CN2CCC3(C2)C2CC4CC(C2)CC3C4)c(F)c1 (centres unmarked) [compound 78] | 100 to 1000 | 100 to 1000 | > 100000 | 1000 to 10000 | 1000 to 10000 | 10000 to 100000 | 0.4 | I (I: 0.1-1) |
| O=C(NO)c1cc(F)c(CN2CCC3(CCCCC3)C2)cc1F [compound 67] | 1000 to 10000 | 1000 to 10000 | 10000 to 100000 | 1 to 100 | 1 to 100 | 1000 to 10000 | 20 | III (III: >10-100) |
| O=C(NO)c1cc(F)c2c(c1)CCN([C@@H]1CCC3(CCCCC3)C1)C2 (single isomer, unassigned) [compound 110] | 1000 to 10000 | 1000 to 10000 | 10000 to 100000 | 1 to 100 | – | 10000 to 100000 | – | – |
| CC1(C)C[C@@H]2Cc3c(F)cc(C(=O)NO)cc3CN2C1 (single isomer, unassigned) [compound 127] | 1000 to 10000 | – | > 100000 | 1 to 100 | – | 1000 to 10000 | – | – |
| O=C(NO)c1ccc(CN2C3CCCC2CC3)c(F)c1 [compound 61] | 1000 to 10000 | 1000 to 10000 | > 100000 | 100 to 1000 | 100 to 1000 | 1000 to 10000 | 9.6 | II (II: >1-10) |
| O=C(NO)c1cc(F)c2c(c1)CCN(CC1COC1)C2 [compound 27] | 10000 to 100000 | 10000 to 100000 | > 100000 | 1 to 100 | 1 to 100 | 1000 to 10000 | – | – |
| C[C@H]1CC[C@H]2c3c(F)cc(C(=O)NO)cc3CCN12 (single isomer, unassigned) [compound 157] | 1000 to 10000 | – | 10000 to 100000 | 1 to 100 | – | 100 to 1000 | – | – |
| O=C(NO)c1ccc(CN2C3CCC2COC3)c(F)c1 [compound 59] | 100 to 1000 | 100 to 1000 | 10000 to 100000 | 1 to 100 | 1 to 100 | 1000 to 10000 | – | – |
| CN1CC2(CCCCC2)CC[C@@H]1Cc1cc(F)cc(C(=O)NO)c1 (single isomer, unassigned) [compound 170] | 1000 to 10000 | 1000 to 10000 | 10000 to 100000 | 1 to 100 | 1 to 100 | 1000 to 10000 | 68 | III (III: >10-100) |
